# Measured values reported in the NIST ThermoML archive (doi:10.1021/acs.jced.7b00026).
# Numbers after ± are expanded uncertainties.
# Columns and labels:
# [1] = refractive index (Na D-line) (dimensionless); conditions: 293.15 K; 101.33 kPa; Liquid; Standard Abbe refractometry
# [2] = Liquid; for mass density: 293.15 K, 101.33 kPa, Vibrating tube method
# [3] = Boiling temperature at pressure P; conditions: Liquid, Ebulliometric method (Recirculating still)
Compound,refractive index [1],mass density [2] [kg/m3],"vapor or sublimation pressure ([2]; 338.15 K, Ebullio) [kPa]","vapor or sublimation pressure ([2]; 353.15 K, Ebullio) [kPa]","vapor or sublimation pressure ([2]; 368.15 K, Ebullio) [kPa]",Boiling temperature at pressure P ([3]; 39.89 kPa) [°C],Boiling temperature at pressure P ([3]; 69.89 kPa) [°C],Boiling temperature at pressure P ([3]; 14.9 kPa) [°C],Boiling temperature at pressure P ([3]; 29.9 kPa) [°C],Boiling temperature at pressure P ([3]; 59.89 kPa) [°C],Boiling temperature at pressure P ([3]; 79.88 kPa) [°C],further results
CC(=O)CC(C)C [4-methylpentan-2-one],1.39586 ± 0.00085,800.3 ± 1,17.57 ± 1.4,31.41 ± 2.4,54.04 ± 4.2,86.5 ± 0.2,103.21 ± 0.19,–,–,–,–,"vapor or sublimation pressure ([2]; 323.15 K, Ebullio): 9.22 ± 0.72 kPa; Boiling temperature at pressure P ([3]; 9.22 kPa): 49.67 ± 0.38 °C; Boiling temperature at pressure P ([3]; 9.9 kPa): 51.26 ± 0.38 °C; Boiling temperature at pressure P ([3]; 17.52 kPa): 64.70 ± 0.27 °C; Boiling temperature at pressure P ([3]; 18.41 kPa): 65.96 ± 0.27 °C; Boiling temperature at pressure P ([3]; 31.36 kPa): 79.73 ± 0.22 °C; Boiling temperature at pressure P ([3]; 32.13 kPa): 80.39 ± 0.22 °C; Boiling temperature at pressure P ([3]; 53.99 kPa): 95.31 ± 0.2 °C"
CCCO [propan-1-ol],1.38512 ± 0.00086,803.66 ± 1,25.92 ± 2,51 ± 4,93.92 ± 7.3,74.30 ± 0.2,87.44 ± 0.19,53.83 ± 0.23,67.97 ± 0.2,83.71 ± 0.19,90.76 ± 0.19,Boiling temperature at pressure P ([3]; 25.89 kPa): 64.94 ± 0.23 °C; Boiling temperature at pressure P ([3]; 51.21 kPa): 79.99 ± 0.19 °C; Boiling temperature at pressure P ([3]; 93.89 kPa): 94.87 ± 0.19 °C; Boiling temperature at pressure P ([3]; 99.88 kPa): 96.46 ± 0.18 °C
CC(C)O [propan-2-ol],1.37718 ± 0.00086,784.99 ± 1,–,–,–,60.83 ± 0.2,73.30 ± 0.19,41.28 ± 0.23,54.82 ± 0.2,69.8 ± 0.19,76.49 ± 0.19,vapor or sublimation pressure ([2]; 323.15 K): 23.48 ± 1.8 kPa; vapor or sublimation pressure ([2]; 338.15 K): 48.45 ± 3.8 kPa; vapor or sublimation pressure ([2]; 353.15 K): 92.48 ± 7.2 kPa; Boiling temperature at pressure P ([3]; 23.43 kPa): 49.88 ± 0.22 °C; Boiling temperature at pressure P ([3]; 48.34 kPa): 64.99 ± 0.19 °C; Boiling temperature at pressure P ([3]; 92.4 kPa): 79.99 ± 0.18 °C; Boiling temperature at pressure P ([3]; 98.88 kPa): 81.67 ± 0.18 °C
